Measurements reported in patent US10793575B2, “Oxoisoquinoline derivatives” (CARNA BIOSCIENCES, INC., priority 2016, dated 2020).
pIC50: −log10 of the molar value.

target: dephosphorylated BTK (Homo sapiens (Human), UniProt Q06187); experiment: BTK Activity Inhibition Test (mobility shift assay); assay type: biochemical; conditions: 200 μM ATP, read-out: Inhibitory Activity on BTK
Protocol: Dephosphorylated BTK was obtained by adding λ protein phosphatase (manufactured by New England BioLabs Inc., Code No. P0753S) and MnCl2 at 10 U/μg and 2 mM, respectively, to biotinylated BTK protein BTN-BTK (Manufactured by Carna Biosciences, Inc.) enzyme solution, reacting the mixture at 4° C. overnight, and removing of λ protein phosphatase by anti […]-tag antibody agarose gel chromatography, followed by buffer exchange using a 10DG Desalting Column.
The kinase activity was measured using QuickScout Screening Assist (trade mark) MSA (commercially available kit manufactured by Carna Biosciences, Inc.) by mobility shift assay (MSA) method. The substrate of the kinase reaction was an FITC-labeled SRCtide peptide included in the kit. An assay buffer [20 mM HEPES, 0.01% Triton X-100 (Trade mark), 2 mM dithiothreitol, pH 7.5] was used and adjusted at 4 μM substrate, 20 mM MgCl2 and 200 μm ATP to obtain a substrate mixture solution. The enzyme solution was also prepared by diluting the dephosphorylated BTK to 0.46 nM using the assay buffer. The 10 mM solution of the test compound in DMSO was further diluted with DMSO to 10 levels of the concentration (0.00003 mM, 0.0001 mM, 0.0003 mM, 0.001 mM, 0.003 mM, 0.01 mM, 0.03 mM, 0.1 mM, 0.3 mM, 1 mM), each of which was subjected to a 25-fold dilution with the assay buffer to obtain the drug solutions (4% DMSO solutions). 5 μL of the drug solution or a control solution (4% DMSO-assay buffer), 5 μL of the substrate mixture solution, and 10 μL of the enzyme solution were mixed in the wells of a polypropylene 384-well plate and allowed to react at room temperature for 2 hours, and then quenched by adding 60 μL of the termination buffer included in the kit. Subsequently, the quantities of the substrates (S) and the phosphorylated substrate (P) in the reaction solution were measured using LabChip EZ Reader II system (manufactured by Caliper Life Sciences) according to the protocol of the assay kit.
The heights of the peaks of the isolated substrate and the phosphorylated substrate were represented as S and P, respectively, and a blank which contained the assay buffer instead of the enzyme solution was also measured.
The inhibition rate (%) of the test compound was calculated according to the following equation; Inhibition rate (%)=(1−(C−A)/(B−A))×100 • wherein, A, B and C represent P/(P+S) of the blank well, P/(P+S) of the control well and P/(P+S) of the compound-containing well, respectively.
The IC50 value was calculated via a regression analysis of the inhibition rate (%) and the test compound concentration (logarithmic value).

Sequence of dephosphorylated BTK (Q06187 whole entry): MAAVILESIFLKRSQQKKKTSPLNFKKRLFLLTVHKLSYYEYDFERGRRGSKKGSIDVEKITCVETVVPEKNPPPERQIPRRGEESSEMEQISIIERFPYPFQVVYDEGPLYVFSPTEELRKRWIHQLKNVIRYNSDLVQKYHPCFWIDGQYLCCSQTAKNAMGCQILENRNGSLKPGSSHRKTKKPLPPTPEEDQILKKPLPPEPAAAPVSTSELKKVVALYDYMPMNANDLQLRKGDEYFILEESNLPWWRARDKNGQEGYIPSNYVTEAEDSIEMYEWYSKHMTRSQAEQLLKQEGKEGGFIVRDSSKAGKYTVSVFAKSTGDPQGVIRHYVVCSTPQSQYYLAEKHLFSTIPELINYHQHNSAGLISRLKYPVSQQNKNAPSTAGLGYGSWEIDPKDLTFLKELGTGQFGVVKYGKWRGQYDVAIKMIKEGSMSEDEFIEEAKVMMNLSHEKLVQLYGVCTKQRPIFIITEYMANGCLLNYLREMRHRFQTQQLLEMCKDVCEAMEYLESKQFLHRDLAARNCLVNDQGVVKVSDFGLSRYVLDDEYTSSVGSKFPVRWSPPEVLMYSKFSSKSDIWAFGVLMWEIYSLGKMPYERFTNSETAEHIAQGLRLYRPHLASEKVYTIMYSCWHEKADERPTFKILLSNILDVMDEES

pIC50	Structure (SMILES)
> 8.00	Nc1nc(-c2cccc(-n3ccc4cc(C5CC5)cc(F)c4c3=O)c2CO)c2nc[nH]c2n1 [Example 4, 2-[3-(2-amino-9H-purin-6-yl)-2-(hydroxymethyl)phenyl]-6-cyclopropyl-8-fluoroisoquinolin-1(2H)-one]
> 8.00	Nc1nc(-c2cccc(-n3ccc4cc(C5CC5)cc(F)c4c3=O)c2CO)c2cc[nH]c2n1 [Example 6, 2-[3-(2-amino-7H-pyrrolo[2,3-d]pyrimidin-4-yl)-2-(hydroxymethyl)phenyl]-6-cyclopropyl-8-fluoroisoquinolin-1(2H)-one]
> 8.00	Cc1cc2c(-c3cccc(-n4ccc5cc(C6CC6)cc(F)c5c4=O)c3CO)nc(N)nc2[nH]1 [Example 7, 2-[3-(2-amino-6-methyl-7H-pyrrolo[2,3-d]pyrimidin-4-yl)-2-(hydroxymethyl)phenyl]-6-cyclopropyl-8-fluoroisoquinolin-1(2H)-one]
> 8.00	Nc1nc(-c2cccc(-n3ccc4cc(C5CC5)cc(F)c4c3=O)c2CO)c2cc(C3CC3)[nH]c2n1 [Example 9, 2-[3-(2-amino-6-cyclopropyl-7H-pyrrolo[2,3-d]pyrimidin-4-yl)-2-(hydroxymethyl)phenyl]-6-cyclopropyl-8-fluoroisoquinolin-1(2H)-one]
> 8.00	Cc1n[nH]c2nc(N)nc(-c3cccc(-n4ccc5cc(C6CC6)cc(F)c5c4=O)c3CO)c12 [Example 10, 2-[3-(6-amino-3-methyl-1H-pyrazolo[3,4-d]pyrimidin-4-yl)-2-(hydroxymethyl)phenyl]-6-cyclopropyl-8-fluoroisoquinolin-1(2H)-one]
7.00 to 8.00	Nc1nc(-c2cccc(-n3ccc4cc(C5CC5)cc(F)c4c3=O)c2CO)c2cc(CO)[nH]c2n1 [Example 11, 2-{3-[2-amino-6-(hydroxymethyl)-7H-pyrrolo[2,3-d]pyrimidin-4-yl]-2-(hydroxymethyl)phenyl}-6-cyclopropyl-8-fluoroisoquinolin-1(2H)-one]
> 8.00	Nc1nc(-c2cccc(-n3ccc4cc(C5CC5)cc(F)c4c3=O)c2CO)c2nc(C3CC3)[nH]c2n1 [Example 12, 2-[3-(2-amino-8-cyclopropyl-9H-purin-6-yl)-2-(hydroxymethyl)phenyl]-6-cyclopropyl-8-fluoroisoquinolin-1(2H)-one]
> 8.00	Nc1nc(-c2cccc(-n3ccc4cc(C5CC5)cc(F)c4c3=O)c2CO)c2cc(-c3ccncc3)[nH]c2n1 [Example 19, 2-{3-[2-amino-6-(pyridin-4-yl)-7H-pyrrolo[2,3-d]pyrimidin-4-yl]-2-(hydroxymethyl)phenyl}-6-cyclopropyl-8-fluoroisoquinolin-1(2H)-one]
> 8.00	COc1ccc(-c2n[nH]c3nc(N)nc(-c4cccc(-n5ccc6cc(C7CC7)cc(F)c6c5=O)c4CO)c23)cc1 [Example 20, 2-{3-[6-amino-3-(4-methoxyphenyl)-1H-pyrazolo[3,4-d]pyrimidin-4-yl]-2-(hydroxymethyl)phenyl}-6-cyclopropyl-8-fluoroisoquinolin-1(2H)-one]
> 8.00	COc1ccccc1-c1n[nH]c2nc(N)nc(-c3cccc(-n4ccc5cc(C6CC6)cc(F)c5c4=O)c3CO)c12 [Example 21, 2-{3-[6-amino-3-(2-methoxyphenyl)-1H-pyrazolo[3,4-d]pyrimidin-4-yl]-2-(hydroxymethyl)phenyl}-6-cyclopropyl-8-fluoroisoquinolin-1(2H)-one]
> 8.00	COc1cccc(-c2n[nH]c3nc(N)nc(-c4cccc(-n5ccc6cc(C7CC7)cc(F)c6c5=O)c4CO)c23)c1 [Example 22, 2-{3-[6-amino-3-(3-methoxyphenyl)-1H-pyrazolo[3,4-d]pyrimidin-4-yl]-2-(hydroxymethyl)phenyl}-6-cyclopropyl-8-fluoroisoquinolin-1(2H)-one]
> 8.00	COc1ccccc1-c1nc2c(-c3cccc(-n4ccc5cc(C6CC6)cc(F)c5c4=O)c3CO)nc(N)nc2[nH]1 [Example 24, 2-{3-[2-amino-8-(2-methoxyphenyl)-9H-purin-6-yl]-2-(hydroxymethyl)phenyl}-6-cyclopropyl-8-fluoroisoquinolin-1(2H)-one]
> 8.00	Nc1nc(-c2cccc(-n3ccc4cc(C5CC5)cc(F)c4c3=O)c2CO)c2c(-c3ccccc3)c[nH]c2n1 [Example 28, 2-[3-(2-amino-5-phenyl-7H-pyrrolo[2,3-d]pyrimidin-4-yl)-2-(hydroxymethyl)phenyl]-6-cyclopropyl-8-fluoroisoquinolin-1(2H)-one]
> 8.00	Nc1nc(-c2cccc(-n3ccc4cc(C5CC5)cc(F)c4c3=O)c2CO)c2cc(-c3cccc(F)c3)[nH]c2n1 [Example 29, 2-{3-[2-amino-6-(3-fluorophenyl)-7H-pyrrolo[2,3-d]pyrimidin-4-yl]-2-(hydroxymethyl)phenyl}-6-cyclopropyl-8-fluoroisoquinolin-1(2H)-one]
7.00 to 8.00	C=CC(=O)NCc1cc2c(-c3cccc(-n4ccc5cc(C6CC6)cc(F)c5c4=O)c3CO)nc(N)nc2[nH]1 [Example 30, N-({2-amino-4-[3-(6-cyclopropyl-8-fluoro-1-oxoisoquinolin-2(1H)-yl)-2-(hydroxymethyl)phenyl]-7H-pyrrolo[2,3-d]pyrimidin-6-yl}methyl)acrylamide]
> 8.00	Cn1cc(-c2nc3c(-c4cccc(-n5ccc6cc(C7CC7)cc(F)c6c5=O)c4CO)nc(N)nc3[nH]2)cn1 [Example 31, 2-{3-[2-amino-8-(1-methyl-1H-pyrazol-4-yl)-9H-purin-6-yl]-2-(hydroxymethyl)phenyl}-6-cyclopropyl-8-fluoroisoquinolin-1(2H)-one]
> 8.00	Nc1nc(-c2cccc(-n3ccc4cc(C5CC5)cc(F)c4c3=O)c2CO)c2cc(-c3ccccc3F)[nH]c2n1 [Example 33, 2-{3-[2-amino-6-(2-fluorophenyl)-7H-pyrrolo[2,3-d]pyrimidin-4-yl]-2-(hydroxymethyl)phenyl}-6-cyclopropyl-8-fluoroisoquinolin-1(2H)-one]
> 8.00	Nc1nc(-c2cccc(-n3ccc4cc(C5CC5)cc(F)c4c3=O)c2CO)c2cc(-c3ccc(F)cc3)[nH]c2n1 [Example 34, 2-{3-[2-amino-6-(4-fluorophenyl)-7H-pyrrolo[2,3-d]pyrimidin-4-yl]-2-(hydroxymethyl)phenyl}-6-cyclopropyl-8-fluoroisoquinolin-1(2H)-one]

tested on: OCI-Ly10 cells; experiment: Proliferation-Inhibitory Test Against Diffuse Large-Cell B-Cell Lymphoma OCI-Ly10 Strain; assay type: cell-based; conditions: Homo sapiens, 96 hours, alamarBlue
Protocol: OCI-Ly10 cells were cultured in IMDM medium (Iscove's Modified Dulbecco's Medium, Manufactured by Thermo Fisher Scientific Inc., hereinafter “medium”) containing 20% Fetal bovine serum and 1% penicillin-streptomycin (Nacalai Tesque, Inc.) in a 5% CO2 incubator. OCI-Ly10 cells were seeded to 96-well plate (20000 cells/well), compounds diluted with medium were added with final concentrations of 0.9 nM to 30000 nM (Final DMSO concentration, 0.3%), incubated for 96 hours and alamorBlue reagent (Thermo Fisher Scientific Inc.) was added.

pIC50	Structure (SMILES)
6.48	Nc1nc(-c2cccc(-n3ccc4cc(C5CC5)cc(F)c4c3=O)c2CO)c2cc(-c3cccc(F)c3)[nH]c2n1 [Example 29, 2-{3-[2-amino-6-(3-fluorophenyl)-7H-pyrrolo[2,3-d]pyrimidin-4-yl]-2-(hydroxymethyl)phenyl}-6-cyclopropyl-8-fluoroisoquinolin-1(2H)-one]
7.35	Cn1cc(-c2nc3c(-c4cccc(-n5ccc6cc(C7CC7)cc(F)c6c5=O)c4CO)nc(N)nc3[nH]2)cn1 [Example 31, 2-{3-[2-amino-8-(1-methyl-1H-pyrazol-4-yl)-9H-purin-6-yl]-2-(hydroxymethyl)phenyl}-6-cyclopropyl-8-fluoroisoquinolin-1(2H)-one]
6.71	Nc1nc(-c2cccc(-n3ccc4cc(C5CC5)cc(F)c4c3=O)c2CO)c2cc(-c3ccccc3F)[nH]c2n1 [Example 33, 2-{3-[2-amino-6-(2-fluorophenyl)-7H-pyrrolo[2,3-d]pyrimidin-4-yl]-2-(hydroxymethyl)phenyl}-6-cyclopropyl-8-fluoroisoquinolin-1(2H)-one]
6.99	Nc1nc(-c2cccc(-n3ccc4cc(C5CC5)cc(F)c4c3=O)c2CO)c2cc(-c3ccc(F)cc3)[nH]c2n1 [Example 34, 2-{3-[2-amino-6-(4-fluorophenyl)-7H-pyrrolo[2,3-d]pyrimidin-4-yl]-2-(hydroxymethyl)phenyl}-6-cyclopropyl-8-fluoroisoquinolin-1(2H)-one]
7.62	CN(C)CC(=O)N1CC=C(c2cc3c(-c4cccc(-n5ccc6cc(C7CC7)cc(F)c6c5=O)c4CO)nc(N)nc3[nH]2)CC1 [Example 85, 2-[3-(2-amino-6-{1-[2-(dimethylamino)acetyl]-1,2,3,6-tetrahydropyridin-4-yl}-7H-pyrrolo[2,3-d]pyrimidin-4-yl)-2-(hydroxymethyl)phenyl]-6-cyclopropyl-8-fluoroisoquinolin-1(2H)-one]
7.89	Nc1nc(-c2cccc(-n3ccc4cc(C5CC5)cc(F)c4c3=O)c2CO)c2cc(C3=CCN(C(=O)CN4CCOCC4)CC3)[nH]c2n1 [Example 86, 2-(3-{2-amino-6-[1-(2-morpholinoacetyl)-1,2,3,6-tetrahydropyridin-4-yl]-7H-pyrrolo[2,3-d]pyrimidin-4-yl}-2-(hydroxymethyl)phenyl)-6-cyclopropyl-8-fluoroisoquinolin-1(2H)-one]
7.89	CC(C)S(=O)(=O)N1CC=C(c2cc3c(-c4cccc(-n5ccc6cc(C7CC7)cc(F)c6c5=O)c4CO)nc(N)nc3[nH]2)CC1 [Example 90, 2-(3-{2-amino-6-[1-(isopropylsulfonyl)-1,2,3,6-tetrahydropyridin-4-yl]-7H-pyrrolo[2,3-d]pyrimidin-4-yl}-2-(hydroxymethyl)phenyl)-6-cyclopropyl-8-fluoroisoquinolin-1(2H)-one]
7.21	Nc1nc(-c2cccc(-n3ccc4cc(C5CC5)cc(F)c4c3=O)c2CO)c2cc(C3=CCN(CC4CC4)CC3)[nH]c2n1 [Example 92, 2-(3-{2-amino-6-[1-(cyclopropylmethyl)-1,2,3,6-tetrahydropyridin-4-yl]-7H-pyrrolo[2,3-d]pyrimidin-4-yl}-2-(hydroxymethyl)phenyl)-6-cyclopropyl-8-fluoroisoquinolin-1(2H)-one]
